Results as given in US11214594B2, “Antimicrobial peptide having synergistic antibacterial effect with antibiotics on multidrug resistant bacteria, and use thereof” (priority 2016, dated 2022).
Values after ≈ are worked out from the molar mass of the structure shown. Read-outs that look alike come from different tables or passages of the source. Where a SMILES comes first, the peptide text is derived from it. [ ]: non-standard residue; d: D form.

What was measured:
[1] = test system: E. coli; assay type: cell-based, Escherichia coli; conditions: E. coli
Method in brief: (§1)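 Antibiotic MIC came from antibiotic dilutions added to bacteria (2×10^6 CFU/ml, MH medium) already combined with peptide serially diluted 2:1 from its own MIC. Swapping the roles of the two agents gave the peptide MIC.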

[2] = test system: MDREC 1229; assay type: cell-based, Escherichia coli
Method in brief: as §1

[3] = test system: MDRAB 12035; test: MIC of antimicrobial peptide during combined treatment with antibiotic; assay type: cell-based, Acinetobacter baumannii
Method in brief: as §1

[4] = test system: A. baumannii; test: as above; assay type: cell-based, Acinetobacter baumannii
Method in brief: as §1

[5] = test system: P. aeruginosa; test: microbe, parasite or virus in culture; assay type: cell-based, Pseudomonas aeruginosa
Method in brief: (§2)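 Peptides were serially diluted twofold in Mueller-Hinton medium and combined 1:1 with bacterial suspensions prepared at 2×10^6 CFU. Readout was the minimal inhibitory concentration, i.e. the lowest concentration with no growth.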

[6] = test system: MDRAB 12036; assay type: cell-based, Acinetobacter baumannii
Method in brief: as §2

[7] = test system: MDRST 8007; test: Minimal inhibitory concentration (MIC), single agent; assay type: cell-based, Salmonella typhimurium; conditions: agent alone
Method in brief: as §2

[8] = test system: E. coli; test: microbe, parasite or virus in culture; assay type: cell-based, Escherichia coli; conditions: 16 h
Method in brief: as §2

[9] = test system: MDREC 1229; test: microbe, parasite or virus in culture; assay type: cell-based, Escherichia coli
Method in brief: as §2

[10] = test system: MDREC 1238; assay type: cell-based, Escherichia coli
Method in brief: as §2

[11] = test system: B. subtilis; test: microbe, parasite or virus in culture; assay type: cell-based, Bacillus subtilis
Method in brief: as §2

[12] = test system: E. coli; test: MIC of antibiotic during combined treatment with antimicrobial peptide; assay type: cell-based, Escherichia coli; conditions: for Antibiotic MIC, Erythromycin: E. coli
Method in brief: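 MIC values for mixed peptide plus antibiotic solutions were measured in MH medium.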

[13] = linezolid 64 μg/ml (Conc./MIC 1/8)
[14] = linezolid 512 μg/ml (Conc./MIC 1)
[15] = vancomycin 512 μg/ml (Conc./MIC 1/2)
[16] = vancomycin 1024 μg/ml (Conc./MIC 1)
[17] = erythromycin 4 μg/ml (Conc./MIC 1/8)
[18] = erythromycin 8 μg/ml (Conc./MIC 1/4)
[19] = erythromycin 16 μg/ml (Conc./MIC 1/2)
[20] = erythromycin 32 μg/ml (Conc./MIC 1)

## CC[C@H](C)[C@H](NC(=O)[C@H](CCCCN)NC(=O)[C@H](Cc1c[nH]c2ccccc12)NC(=O)[C@@H](N)CCCNC(=N)N)C(=O)N[C@@H](Cc1ccccc1)C(=O)N[C@@H](CCCCN)C(=O)N[C@@H](CCCCN)C(=O)N[C@H](C(=O)N[C@H](CCCCN)C(=O)N[C@@H](CCCCN)C(=O)N[C@@H](CC(C)C)C(=O)N[C@@H](CC(C)C)C(=O)N[C@@H](Cc1c[nH]cn1)C(=O)N[C@@H](CCCCN)C(=O)N[C@@H](Cc1ccccc1)C(=O)N[C@@H](CCCCN)C(=O)N[C@@H](CCCCN)C(=O)N[C@@H](Cc1ccccc1)C(N)=O)[C@@H](C)CC [PapMA-17, RWK IFK KIk KLL HKF KKF-NH2] (H-RWKIFKKI[dK]KLLHKFKKF-NH2; N-terminus assumed)
[1]; with Erythromycin […] (Conc./MIC 1)
  Peptide MIC: 0 µg/mL
[1]; with Linezolid […] (Conc./MIC 1)
  Peptide MIC: 0 µg/mL
[1]; with Vancomycin 1024 μg/ml (Conc./MIC 1)
  Peptide MIC: 0 µg/mL
[2]; erythromycin 32 μg/ml (Conc./MIC 1/8)
  Peptide MIC during treatment with antibiotic: 2 µg/mL
[2]; erythromycin 64 μg/ml (Conc./MIC 1/4)
  Peptide MIC during treatment with antibiotic: 2 µg/mL
[2]; erythromycin […] (Conc./MIC 1)
  Peptide MIC during treatment with antibiotic: 0 µg/mL
[2]; erythromycin […] (Conc./MIC 1/2)
  Peptide MIC during treatment with antibiotic: 2 µg/mL
[2]; [13]
  Peptide MIC during treatment with antibiotic: 4 µg/mL
[2]; [14]
  Peptide MIC during treatment with antibiotic: 0 µg/mL
[2]; linezolid […] (Conc./MIC 1/2)
  Peptide MIC during treatment with antibiotic: 1 µg/mL
[2]; linezolid […] (Conc./MIC 1/4)
  Peptide MIC during treatment with antibiotic: 4 µg/mL
[2]; [15]
  Peptide MIC during treatment with antibiotic: 2 µg/mL
[2]; [16]
  Peptide MIC during treatment with antibiotic: 1 µg/mL
[2]; vancomycin […] (Conc./MIC 1/4)
  Peptide MIC during treatment with antibiotic: 4 µg/mL
[2]; vancomycin […] (Conc./MIC 1/8)
  Peptide MIC during treatment with antibiotic: 8 µg/mL
[3]; [17]
  Peptide MIC during treatment with erythromycin: 4 µg/mL
[3]; [18]
  Peptide MIC during treatment with erythromycin: 4 µg/mL
[3]; [19]
  Peptide MIC during treatment with erythromycin: 2 µg/mL
[3]; [20]
  Peptide MIC during treatment with erythromycin: 0 µg/mL
[3]; [13]
  Peptide MIC during treatment with linezolid: 4 µg/mL
[3]; [14]
  Peptide MIC during treatment with linezolid: 0 µg/mL
[3]; linezolid […] (Conc./MIC 1/2)
  Peptide MIC during treatment with linezolid: 1 µg/mL
[3]; linezolid […] (Conc./MIC 1/4)
  Peptide MIC during treatment with linezolid: 2 µg/mL
[3]; [15]
  Peptide MIC during treatment with vancomycin: 2 µg/mL
[3]; [16]
  Peptide MIC during treatment with vancomycin: 1 µg/mL
[3]; vancomycin […] (Conc./MIC 1/4)
  Peptide MIC during treatment with vancomycin: 4 µg/mL
[3]; vancomycin […] (Conc./MIC 1/8)
  Peptide MIC during treatment with vancomycin: 4 µg/mL
[4]; [17]
  Peptide MIC during treatment with antibiotic: 4 µg/mL
[4]; [18]
  Peptide MIC during treatment with antibiotic: 4 µg/mL
[4]; [19]
  Peptide MIC during treatment with antibiotic: 2 µg/mL
[4]; [20]
  Peptide MIC during treatment with antibiotic: 0 µg/mL
[4]; linezolid 32 μg/ml (Conc./MIC 1/8)
  Peptide MIC during treatment with antibiotic: 4 µg/mL
[4]; linezolid 64 μg/ml (Conc./MIC 1/4)
  Peptide MIC during treatment with antibiotic: 2 µg/mL
[4]; linezolid […] (Conc./MIC 1)
  Peptide MIC during treatment with antibiotic: 0 µg/mL
[4]; linezolid […] (Conc./MIC 1/2)
  Peptide MIC during treatment with antibiotic: 2 µg/mL
[4]; [15]
  Peptide MIC during treatment with antibiotic: 0.25 µg/mL
[4]; [16]
  Peptide MIC during treatment with antibiotic: 0 µg/mL
[4]; vancomycin […] (Conc./MIC 1/4)
  Peptide MIC during treatment with antibiotic: 0.5 µg/mL
[4]; vancomycin […] (Conc./MIC 1/8)
  Peptide MIC during treatment with antibiotic: 4 µg/mL
[5]
  Minimal inhibitory concentration MIC: 16 µg/mL (≈ 6.62 µM)
[6]
  Minimal inhibitory concentration MIC: 32 µg/mL (≈ 13.2 µM)
[7]
  Minimal inhibitory concentration MIC: 64 µg/mL (≈ 26.5 µM)
[8]
  Minimal inhibitory concentration MIC: 16 µg/mL (≈ 6.62 µM)
[9]
  Minimal inhibitory concentration MIC: 16 µg/mL (≈ 6.62 µM)
  Peptide MIC, peptide alone: 16 µg/mL
[10]
  Minimal inhibitory concentration MIC: 32 µg/mL (≈ 13.2 µM)
[11]
  Minimal inhibitory concentration MIC: >128 µg/mL
[12]; E. coli and MDREC1229
  Synergistic effect of antibacterial activity with existing antibiotics compared with PapMA-1: higher level than the PapMA-1 peptide
[12]; erythromycin combined with peptide at 1 μg/ml
  Antibiotic MIC, Erythromycin: 128 µg/mL
[12]; erythromycin combined with peptide at 2 μg/ml
  Antibiotic MIC, Erythromycin: 16 µg/mL
[12]; erythromycin combined with peptide at 4 μg/ml
  Antibiotic MIC, Erythromycin: 8 µg/mL
